Among the data in patent US8575153B2 (Kowa Company, Ltd., priority 2008, dated 2013) are inhibition values, retold here.

Molecules are shown by their SMILES.

The target in this experiment is Recombinant human JAK3 enzyme (JAK3 kinase region; Ala795-Ser1124) (Homo sapiens, UniProt P52333). Description: JAK3 Kinase Assay (Kinase-Glo luminescent, ATP consumption). Particulars: read-out: Inhibition rate (%) of JAK3 kinase activity. (In Kinase-Glo more light means more ATP remaining.)
Sequence of Recombinant human JAK3 enzyme (JAK3 kinase region; Ala795-Ser1124) (P52333 795-1124): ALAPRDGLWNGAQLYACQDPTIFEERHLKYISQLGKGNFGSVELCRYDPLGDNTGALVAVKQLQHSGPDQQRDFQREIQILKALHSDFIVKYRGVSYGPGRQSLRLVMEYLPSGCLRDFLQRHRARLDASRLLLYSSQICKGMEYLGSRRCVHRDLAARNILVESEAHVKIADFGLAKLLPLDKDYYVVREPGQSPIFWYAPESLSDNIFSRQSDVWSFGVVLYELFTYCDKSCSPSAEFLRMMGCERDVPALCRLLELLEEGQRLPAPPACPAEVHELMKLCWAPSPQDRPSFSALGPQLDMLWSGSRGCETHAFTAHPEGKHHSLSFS
Protocol: Recombinant human JAK3 enzyme (JAK3 kinase region; Ala795-Ser1124) was purchased from Carna Biosciences, Inc.
The reaction was conducted in a kinase buffer (reaction volume: a total of 50 μl) containing 8 mM MOPS (pH 7.0), 0.2 mM EDTA, a test compound solution prepared to each concentration and 0.5 μg/ml JAK3 enzyme using a 96-well polystyrene plate (clear-bottom white-wall). […] After incubating them at room temperature for 2 hours, 50 μl of Kinase-Glo Luminescent Kinase Assay reagent (Promega) was added to each well, and further incubated at room temperature for 10 minutes. Using a chemiluminescence microplate reader MicroLumat LB96P (Berthold), chemiluminescence intensity was measured to quantitate the amount of ATP remaining after reaction. From the amount of ATP consumed in the phosphorylation reaction, the inhibition rate (%) of JAK3 kinase activity was determined.
By inhibition is commonly meant the change of the read-out against control, counted positive when it falls. As for `NC(=O)c1cnc(Nc2ccc(N3CCC(O)CC3)cc2)cc1NCc1ccccc1Cl` [Example 186, 4-[(2-chlorobenzyl)amino]-6-{[4-(4-hydroxypiperidino)phenyl]amino}pyridine-3-carboxyamide], the inhibition at 0.1 µM is 93%.
Same read-out and setting: in the case of `NC(=O)c1cnc(Nc2ccc(N3CCOCC3)cc2)cc1NCc1cc(F)ccc1F` [Example 93, 4-[(2,5-difluorobenzyl)amino]-6-[(4-morpholinophenyl)amino]pyridine-3-carboxyamide] it was 86%; in that of `N#CCC(=O)N1CCN(c2ccc(Nc3cc(NCc4cccc(F)c4F)c(C(N)=O)cn3)cc2)CC1` [Example 263, 6-({4-[4-(cyanoacetyl)piperazin-1-yl]phenyl}amino)-4-[(2,3-difluorobenzyl)amino]pyridine-3-carboxyamide], 98%.
As to `NC(=O)c1cnc(Nc2ccc(NCCO)cc2)cc1NCc1cc(F)cc(F)c1` [Example 234, 4-[(3,5-difluorobenzyl)amino]-6-({4-[(2-hydroxyethyl)amino]phenyl}amino)pyridine-3-carboxyamide], the inhibition at 0.1 µM worked out at 72%.
On the same count and under the same terms, next, `NC(=O)c1cnc(Nc2ccc(C(=O)C(F)(F)F)cc2)cc1NCc1cc(F)cc(F)c1` [Example 326, 4-[(3,5-difluorobenzyl)amino]-6-{[(4-trifluoroacetyl)phenyl]amino}pyridine-3-carboxyamide]: 71%; `N#CCC(=O)N1CCN(c2ccc(Nc3cc(NCc4ccccc4)c(C(N)=O)cn3)cc2)CC1` [Example 262, 4-(benzylamino)-6-({4-[4-(cyanoacetyl)piperazin-1-yl]phenyl}amino)pyridine-3-carboxyamide]: 78%.
For `CC(C)NC(=O)N1CCN(c2ccc(Nc3cc(NCc4cccc([N+](=O)[O-])c4)c(C(N)=O)cn3)cc2)CC1` [Example 284, 4-[(3-nitrobenzyl)amino]-6-[(4-{[4-(propan-2-yl)carbamoyl]piperazin-1-yl}phenyl)amino]pyridine-3-carboxyamide], the inhibition at 0.1 µM is 63%.
The same measure, in the same setting: next, `NC(=O)c1cnc(Nc2ccc(N3CCOCC3)cc2)cc1NCc1cc(F)cc(C(F)(F)F)c1` [Example 96, 6-[(4-morpholinophenyl)amino]-4-{[3-fluoro-5-(trifluoromethyl)benzyl]amino}pyridine-3-carboxyamide]: 74%; `NC(=O)c1cnc(Nc2ccc(N3CCC(C(=O)N(CCO)CCO)CC3)cc2)cc1NCc1ccccc1` [Example 177, 4-(benzylamino)-6-[(4-{4-[bis(2-hydroxyethyl)carbamoyl]piperidino}phenyl)amino]pyridine-3-carboxyamide]: 84%.
On the same count and under the same terms, next, `CS(=O)(=O)Nc1ccc(Nc2cc(NCc3cccc([N+](=O)[O-])c3)c(C(N)=O)cn2)cc1` [Example 160, 4-[(3-nitrobenzyl)amino]-6-({4-[(methylsulfonyl)amino]phenyl}amino)pyridine-3-carboxyamide]: 66%; `CC(C)S(=O)(=O)Nc1ccc(Nc2cc(NCc3ccccc3)c(C(N)=O)cn2)cc1` [Example 163, 4-(benzylamino)-6-({4-[(propan-2-ylsulfonyl)amino]phenyl}amino)pyridine-3-carboxyamide]: 77%.
On the same count and under the same terms, next, `NC(=O)c1cnc(Nc2ccc(N3CCC(CCO)CC3)cc2)cc1NCc1cc(F)cc(F)c1` [Example 179]: 78%; `CC(C)N1CCN(c2ccc(Nc3cc(NCc4c(F)cccc4F)c(C(N)=O)cn3)cc2)CC1` [Example 153, 4-[(2,6-difluorobenzyl)amino]-6-({4-[4-(propan-2-yl)piperazin-1-yl]phenyl}amino)pyridine-3-carboxyamide]: 94%.
Consider `CN1CCC(Oc2ccc(Nc3cc(NCc4ccccc4)c(C(N)=O)cn3)cc2)CC1` [Example 52, 4-(benzylamino)-6-({4-[(1-methylpiperidin-4-yl)oxy]phenyl}amino)pyridine-3-carboxyamide], for which the inhibition at 0.1 µM came out at 72%.
On the same count and under the same terms, in the case of `CCCS(=O)(=O)Nc1ccc(Nc2cc(NCc3cc(F)cc(F)c3)c(C(N)=O)cn2)cc1` [Example 162, 4-[(3,5-difluorobenzyl)amino]-6-({4-[(propylsulfonyl)amino]phenyl}amino)pyridine-3-carboxyamide] it was 72%; in that of `N#CCCN1CCN(c2ccc(Nc3cc(NCc4cc(F)cc(F)c4)c(C(N)=O)cn3)cc2)CC1` [Example 240, 6-({4-[4-(2-cyanoethyl)piperazin-1-yl]phenyl}amino)-4-[(3,5-difluorobenzyl)amino]pyridine-3-carboxyamide], 85%.
As to `Cc1cccc(CNc2cc(Nc3ccc(N4CCOCC4)cc3)ncc2C(N)=O)c1` [Example 77, 4-[(3-methylbenzyl)amino]-6-[(4-morpholinophenyl)amino]pyridine-3-carboxyamide], the inhibition at 0.1 µM turned out to be 55%.
For the compound `C[C@@H]1CN(c2ccc(Nc3cc(NCc4cccc(F)c4F)c(C(N)=O)cn3)cc2)C[C@H](C)N1` [Example 140, 4-[(2,3-difluorobenzyl)amino]-6-({4-[(3R,5S)-3,5-dimethylpiperazin-1-yl]phenyl}amino)pyridine-3-carboxyamide], the inhibition at 0.1 µM stood at 62%.
The same measure, in the same setting: in the case of `NC(=O)c1cnc(Nc2ccc(N3CCC(C(=O)NCCO)CC3)cc2)cc1NCc1ccccc1` [Example 176, 4-(benzylamino)-6-[(4-{4-[(2-hydroxyethyl)carbamoyl]piperidino}phenyl)amino]pyridine-3-carboxyamide] it was 86%.
The same measure, in the same setting: next, `CC(C)N1CCN(c2cccc(Nc3cc(NCc4cc(F)cc(F)c4)c(C(N)=O)cn3)c2)CC1` [Example 155, 4-[(3,5-difluorobenzyl)amino]-6-({3-[4-(propan-2-yl)piperazin-1-yl]phenyl}amino)pyridine-3-carboxyamide]: 59%; `N#CCC(=O)N1CCN(c2ccc(Nc3cc(NCc4c(F)cccc4F)c(C(N)=O)cn3)cc2)CC1` [Example 266, 6-({4-[4-(cyanoacetyl)piperazin-1-yl]phenyl}amino)-4-[(2,6-difluorobenzyl)amino]pyridine-3-carboxyamide]: 77%; `CCN(CC)CC(=O)N1CCN(c2ccc(Nc3cc(NCc4cccc(F)c4F)c(C(N)=O)cn3)cc2)CC1` [Example 205, 6-({4-[4-(N,N-diethylglycyl)piperazin-1-yl]phenyl}amino}-4-[(2,3-difluorobenzyl)amino]pyridine-3-carboxyamide]: 98%.
Turning to `NC(=O)c1cnc(Nc2ccc(N3CCC(CCO)CC3)cc2)cc1NCc1cccc(F)c1F` [Example 178, 4-[(2,3-difluorobenzyl)amino]-6-({4-{4-(2-hydroxyethyl)piperidino]phenyl}amino)pyridine-3-carboxyamide], the inhibition at 0.1 µM stood at 90%.
On to `C[C@@H]1CN(c2ccc(Nc3cc(NCc4cc(F)cc(F)c4)c(C(N)=O)cn3)cc2)C[C@H](C)N1` [Example 141, 4-[(3,5-difluorobenzyl)amino]-6-({4-[(3R,5S)-3,5-dimethylpiperazin-1-yl]phenyl}amino) pyridine-3-carboxyamide], for which the inhibition at 0.1 µM was determined as 83%.
The same measure, in the same setting: in the case of `CN1CCN(c2ccc(Nc3cc(NCc4ccccc4)c(C(N)=O)cn3)cc2)CC1` [Example 145, 4-(benzylamino)-6-{[4-(4-methylpiperazin-1-yl)phenyl]amino}pyridine-3-carboxyamide] it was 63%; in that of `NC(=O)c1cnc(Nc2ccc(N3CCC(CCO)CC3)cc2)cc1NCc1cccc([N+](=O)[O-])c1` [Example 180, 6-({4-[4-(2-hydroxyethyl)piperidino]phenyl}amino)-4-[(3-nitrobenzyl)amino]pyridine-3-carboxyamide], 63%.
The same measure, in the same setting: next, `CCN(CC)C(=O)N1CCC(Nc2ccc(Nc3cc(NCc4ccccc4)c(C(N)=O)cn3)cc2)CC1` [Example 290, 4-(benzylamino)-6-[(4-{[1-(diethylcarbamoyl)piperidin-4-yl]amino}phenyl)amino]pyridine-3-carboxyamide]: 71%.
Same read-out and setting: next, `C[C@@H]1CN(c2ccc(Nc3cc(NCc4cc(F)ccc4F)c(C(N)=O)cn3)cc2)C[C@H](C)N1` [Example 142, 4-[(2,5-difluorobenzyl)amino]-6-({4-[(3R,5S)-3,5-dimethylpiperazin-1-yl]phenyl}amino) pyridine-3-carboxyamide]: 66%.
In the case of `NC(=O)c1cnc(Nc2cccc(N3CCNCC3)c2)cc1NCc1cc(F)cc(F)c1` [Example 225, 4-[(3,5-difluorobenzyl)amino]-6-{[3-(piperazin-1-yl)phenyl]amino}pyridine-3-carboxyamide], the inhibition at 0.1 µM amounted to 74%.
Consider `NC(=O)c1cnc(-c2c[nH]c3ncccc23)cc1NCc1cc(F)cc(F)c1` [Example 371, 4-[(3,5-difluorobenzyl)amino]-6-(1H-pyrrolo[2,3-b]pyridin-3-yl)pyridine-3-carboxyamide], for which the inhibition at 1 µM was 42%.
For `CC(C)NC(=O)N1CCN(c2ccc(Nc3cc(NCc4ccccc4)c(C(N)=O)cn3)cc2)CC1` [Example 283], the inhibition at 0.1 µM stood at 79%.
Consider `NC(=O)c1cnc(Nc2ccc(N3CCOCC3)cc2)cc1NC1CCOc2ccccc21` (centres unmarked) [Example 351, 4-(3,4-dihydro-2H-1-benzopyran-4-ylamino)-6-[(4-morpholinophenyl)amino]pyridine-3-carboxyamide], for which the inhibition at 1 µM was 45%.
In the case of `CCN(CC)C(=O)Nc1ccc(Nc2cc(NCc3ccccc3)c(C(N)=O)cn2)cc1` [Example 279, 4-(benzylamino)-6-({4-[(diethylcarbamoyl)amino]phenyl}amino)pyridine-3-carboxyamide], the inhibition at 0.1 µM amounted to 59%.
Regarding `CC(C)N1CCN(c2ccc(Nc3cc(NCc4cc(F)cc(F)c4)c(C(N)=O)cn3)cc2)CC1` [Example 151, 4-[(3,5-difluorobenzyl)amino]-6-({4-[4-(propan-2-yl)piperazin-1-yl]phenyl}amino)pyridine-3-carboxyamide], the inhibition at 0.1 µM was found to be 69%.
`NC(=O)c1cnc(Nc2ccc(N3CCOCC3)cc2)cc1NC1CCCCC1` [Example 345, 4-cyclohexylamino-6-[(4-morpholinophenyl)amino]pyridine-3-carboxyamide]: the inhibition at 1 µM was 79%.
